≈ marks a conversion by molar mass, not a printed value. Where two headings read alike, the source gives them in different places.
Columns and labels:
[1] = test system: lipoprotein lipase (LPL) gene; assay: LPL mRNA elevating action (RT-PCR quantification of LPL mRNA in C2Cl2 cells); format: cell-based, mouse; conditions: Mus musculus, 24 h, compound 10 μM, ratio relative to the amount of LPL mRNA in cells with DMSO only, read-out: Rate of increase in LPL mRNA
Procedure, shortened: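 Read-out is LPL mRNA relative to vehicle (DMSO = 1), measured by reverse transcription and 20-cycle real-time PCR. Cells were the mouse striated-muscle line C2Cl2, treated 24 h with 10 μM compound in DMEM containing 10% FBS.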

[2] = Solubility in gastric juice or intestinal juice model fluid (precipitation method using DMSO); format: physicochemical; conditions: room temperature
Procedure, shortened: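 Dissolved amount (μg/mL) quantified by UV of filtrate versus pre-made calibration curves. Precipitation approach: DMSO solutions spiked into pH 1.2 (JP 1st fluid) or pH 6.8 (JP 2nd fluid) medium, shaken at room temperature for 24 h before insolubles were filtered off.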

[3] = pH 1.2, simulated gastric fluid, kinetic from dmso stock, 1st fluid for Disintegration Test of Japanese Pharmacopoeia (pH: 1.2), read-out: Solubility (μg/mL) 1st fluid
[4] = pH 6.8, kinetic from dmso stock, 2nd fluid for Disintegration Test of Japanese Pharmacopoeia (pH: 6.8), read-out: Solubility (μg/mL) 2nd fluid

Compound | melting point | solubility at 24 h [2, 3] | solubility at 24 h [2, 4] | fold induction at 10 µM [1]
COc1cc(OCc2ncc(C(F)(F)F)cc2Cl)ccc1-c1cnc(-c2ccc(F)nc2)[nH]1 [Example 132] | 185 to 187 °C | 5.9 µg/mL (≈ 12.3 µM) | < 0.3 µg/mL | 2.77
COc1cc(OCc2ncc(C(F)(F)F)cc2Br)ccc1-c1cnc(-c2ccc(F)nc2)[nH]1 [Example 133] | 153 to 170 °C | 29.3 µg/mL (≈ 56 µM) | 2 µg/mL (≈ 3.82 µM) | 2.43
COc1cc(OCc2ccnc(C(F)(F)F)c2)ccc1-c1cnc(-c2ccc(F)nc2)[nH]1 [Example 135] | 212 to 244 °C | 6.8 µg/mL (≈ 15.3 µM) | 2.2 µg/mL (≈ 4.95 µM) | 3.14
COc1cc(OCc2ccncc2C(F)(F)F)ccc1-c1cnc(-c2ccc(F)nc2)[nH]1 [Example 136] | 181 to 192 °C | > 89 µg/mL | 2.2 µg/mL (≈ 4.95 µM) | 2.71
COc1cc(OCc2ncc(Cl)cc2F)ccc1-c1cnc(-c2ccc(F)nc2)[nH]1 [Example 141] | 174 to 176 °C | 10.1 µg/mL (≈ 23.6 µM) | < 0.3 µg/mL | 2.33
COc1cc(OCc2ccc(C(F)(F)F)cn2)ccc1-c1c(C)nc(-c2ccc(Cl)nc2)n1CC1CC1 [Example 157] | 145 to 148 °C | 106 µg/mL (≈ 199 µM) | 1.9 µg/mL (≈ 3.59 µM) | 4.05
COCn1cc(-c2ccc(OCc3ccc(C(F)(F)F)cn3)cc2OC)nc1-c1ccc(Cl)nc1 [Example 167] | 138 to 140 °C | 100 µg/mL (≈ 199 µM) | 0.4 µg/mL (≈ 0.792 µM) | 2.23

Second part, led by results:

melting point | solubility at 24 h [2, 3] | solubility at 24 h [2, 4] | Compound | fold induction at 10 µM [1]
185 to 188 °C | > 98 µg/mL | < 0.3 µg/mL | COc1cc(OCc2ccc(C(F)(F)F)nc2)ccc1-c1nc(-c2ccc(Cl)nc2)n(C)c1C [Example 152, 2-chloro-5-[4-[2-methoxy-4-((6-(trifluoromethyl)pyridin-3-yl)methoxy)phenyl]-1,5-dimethyl-1H-imidazol-2-yl]pyridine] | 3.3
148 to 150 °C | > 98 µg/mL | 1.7 µg/mL (≈ 3.48 µM) | COc1cc(OCc2ccc(C(F)(F)F)nc2)ccc1-c1c(C)nc(-c2ccc(Cl)nc2)n1C [Example 153, 2-chloro-5-[5-[2-methoxy-4-((6-(trifluoromethyl)pyridin-3-yl)methoxy)phenyl]-1,4-dimethyl-1H-imidazol-2-yl]pyridine] | 4.61
110 to 112 °C | 104 µg/mL (≈ 196 µM) | 2 µg/mL (≈ 3.78 µM) | COc1cc(OCc2ccc(C(F)(F)F)nc2)ccc1-c1nc(-c2ccc(Cl)nc2)n(CC2CC2)c1C [Example 154] | 5.78
164 to 166 °C | > 106 µg/mL | 3 µg/mL (≈ 5.67 µM) | COc1cc(OCc2ccc(C(F)(F)F)nc2)ccc1-c1c(C)nc(-c2ccc(Cl)nc2)n1CC1CC1 [Example 155] | 3.06
123 to 126 °C | > 94 µg/mL | 3.9 µg/mL (≈ 8.25 µM) | COc1cc(OCc2ccc(C(F)(F)F)nc2)ccc1-c1c(C)nc(-c2ccc(F)nc2)n1C [Example 161] | 3.06
152 to 154 °C | 96 µg/mL (≈ 196 µM) | 2.1 µg/mL (≈ 4.3 µM) | COc1cc(OCc2ccc(C(F)(F)F)cn2)ccc1-c1c(C)nc(-c2ccc(Cl)nc2)n1C [Example 165] | 3.34
158 to 160 °C (dec.) | 96.3 µg/mL (≈ 195 µM) | < 0.4 µg/mL | COc1cc(OCc2ccc(C(F)(F)F)cn2)ccc1-c1nc(-c2ccc(F)nc2)n(C)c1Cl [Example 169, 2-[[4-(5-chloro-2-(6-fluoropyridin-3-yl)-1-methyl-1H-imidazol-4-yl)-3-methoxyphenoxy]methyl]-5-(trifluoromethyl)pyridine] | 3.12

Source: patent US10570117B2, “Phenylimidazole compound” (Otsuka Pharmaceutical Factory, Inc., priority 2015, dated 2020)
